Common to all, as to type: functional, organism-based
Experiment [1] has as its system Trypanosoma cruzi. Kind of experiment: Antitrypanosomal activity against trypomastigote form of Trypanosoma cruzi INC5 after 24 hr by Neubauer counting method. Conditions: INC5, 24 h.
Experiment [2] deals with Trypanosoma cruzi. In words: Antitrypanosomal activity against trypomastigote form of Trypanosoma cruzi NINOA after 24 hr by Neubauer counting method.
The subject of experiment [3] is Trypanosoma cruzi. Kind of experiment: Antitrypanosomal activity against trypomastigote form of Trypanosoma cruzi INC5 at 5 to 250 ug/ml after 24 hr by Neubauer counting method.
Experiment [4] concerns Trypanosoma cruzi. In words: Antitrypanosomal activity against trypomastigote form of Trypanosoma cruzi NINOA at 5 to 250 ug/ml after 24 hr by Neubauer counting method.

Converted amounts (≈) assume the structure as drawn. The source made the active and inactive calls. The rule behind the calls is not given here.

The IC50 is the point on the concentration scale where inhibition reaches its midpoint. Lower therefore signals greater potency in that assay. Turning to `Cc1ccc2nc(/C=C/C(=O)O)oc2c1`, the IC50 in the experiment on Trypanosoma cruzi [1] was found to be 421 µg/mL (≈ 2070 µM); in the experiment on Trypanosoma cruzi [2], 266 µg/mL (≈ 1310 µM).

On to `O=C(O)/C=C/c1nc2ccccc2o1`, for which the result in the experiment on Trypanosoma cruzi [3] and in the experiment on Trypanosoma cruzi [4] was Active.

As to `O=C(Cn1ccnc1[N+](=O)[O-])NCc1ccccc1` [BENZNIDAZOLE], the IC50 is 205 µg/mL (≈ 786 µM) with Trypanosoma cruzi [1] and 117 µg/mL (≈ 448 µM) in the experiment on Trypanosoma cruzi [2].
